Experimental data published in patent US20050019267A1, “Macromolecular imaging agents for liver imaging” (priority 2001, published 2005).

Legend:
[1] = in vivo; cited from earlier work
[2] = system: LS174T intrahepatic micro-metastases; format: in vivo
[3] = 0.03 mmolGd/kg DAB-Am64-(1B4M-Gd)64 or 0.1 mmolGd/kg dimeglumine-DTPA-Gd, dynamic MRI 0-25 min

| SMILES | excreted via the liver [1] | MRI signal intensity for blood vessels (portal and hepatic veins) [2, 3] | MRI signal intensity in the tumors [2, 3] | MRI signal intensity in the liver ([2]; 0.03 mmolGd/kg DAB-Am64-(1B4M-Gd)64 or 0.1 mmolGd/kg dimeglumine-DTPA-Gd, dynamic MRI 0-25 min, comparator worded relative to DAB agent) | liver-to-tumor image intensity ratio ([2]; 0.1 mmolGd/kg dimeglumine-DTPA-Gd versus 0.03 mmolGd/kg DAB-Am64-(1B4M-Gd)64, all time points) | tumors with more than 2 mm diameter detected by MRI (of 18) ([2]; same mice, n=5, 1-day interval, 0.03 mmolGd/kg DAB agent, 0.1 mmolGd/kg dimeglumine-DTPA-Gd) |
| --- | --- | --- | --- | --- | --- | --- |
| CCOc1ccc(CC(CN(CCN(CC(=O)[O-])CC(=O)[O-])CC(=O)[O-])N(CC(=O)[O-])CC(=O)[O-])cc1.[Gd+3].[Na+].[Na+] (stereo not shown) [Eovist, [Gd(EOB-DTPA)(H2O)]^2−] | roughly 50% |  |  |  |  |  |
| CNC[C@H](O)[C@@H](O)[C@H](O)[C@H](O)CO.CNC[C@H](O)[C@@H](O)[C@H](O)[C@H](O)CO.O=C([O-])CN(CCN(CC(=O)[O-])CC(=O)O)CCN(CC(=O)O)C(COCc1ccccc1)C(=O)[O-].[Gd+3] (stereo not shown) [MultiHance, [Gd(BOPTA)(H2O)]^2−] | 2-4% |  |  |  |  |  |
| CNC[C@H](O)[C@@H](O)[C@H](O)[C@H](O)CO.CNC[C@H](O)[C@@H](O)[C@H](O)[C@H](O)CO.O=C([O-])CN(CCN(CC(=O)[O-])CC(=O)O)CCN(CC(=O)[O-])CC(=O)O.[Gd+3] [dimeglumine-DTPA-Gd] |  | much lower | comparable | much lower | significantly less | 18 |
